Results from patent publication US20110118350A1, “COMPOSITION FOR PREVENTING CARDIOVASCULAR EVENT IN HIGH-RISK PATIENT” (MOCHIDA PHARMACEUTICAL CO., LTD., priority 2008, published 2011).

Experiment: Incidence of cardiovascular events for 5 years from the start of administration (DELIS partial analysis)
Type: in vivo, human
Conditions: for Ratio of incidence reduction (%): EPA-E vs control group; for Incidence (%) of cardiovascular events / Number of cardiovascular events: 5 years
Excerpt: This trial corresponds to a partial analysis of the results obtained in DELIS (Japan EPA Lipid Intervention Study) which is a large scale clinical trial of high purity EPA preparation which was presented in the American College of Cardiology 2005 Annual Meeting (for general information on DELIS, see Lancet, vol. 369, pp. 1090-1098 (2007)). More specifically, of 18,645 subject patients of the DELIS trial (EPA group (9,326 cases) and control group (9,319 cases)), 15534 cases (sum of the control group and EPA group) were analyzed for the composition of plasma fatty acids and divided based on the average of the plasma OA/SA ratio during the whole observation period into three groups (i.e., a group having an OA/SA ratio of less than 2.6, a group having an OA/SA ratio of at least 2.6 but less than 3.0, and a group having an OA/SA ratio of at least 3.0) so that the three groups were approximately equal in number, and the groups were compared for the incidence of cardiovascular events for 5 years from the start of administration. The EPA group was orally administered with Epadel (EPA-E available from Mochida Pharmaceutical Co., Ltd.) typically at an adult dose of 600 mg per administration and 3 times a day immediately after the meal. However, in the case of abnormal serum TG, the dose could be increased to 900 mg per administration and 3 times a day depending on the degree of abnormality. In both groups, pravastatin sodium (Mevalotin™ tablets and fine granules, Daiichi Sankyo Co., Ltd.), simvastatin (Lipovas™ tablets, Banyu Pharmaceutical Co., Ltd.), or atorvastatin calcium hydrate (Lipitor™ tablets, Astellas Pharma Inc. and Pfizer Inc.) was used for the base drug, and these drugs were orally administered according to the prescribed dosage regimen. This trial corresponds to a partial analysis of the results obtained in DELIS as in Example 1. More specifically, primary prevention cases combined with secondary prevention cases, only primary prevention cases, and only secondary prevention cases were respectively divided into four groups based on the plasma OA level or the plasma SA level at the start of administration so that the four groups were approximately equal in number. The groups were compared for the incidence of cardiovascular events for 5 years from the start of administration.

[1] = primary + secondary prevention cases, Total (oleic acid grouping)
[2] = primary + secondary prevention cases, Total (stearic acid grouping)
[3] = primary + secondary prevention cases, oleic acid at start 22.1< mol %
[4] = primary + secondary prevention cases, oleic acid at start >18.2-20.1 mol %
[5] = primary + secondary prevention cases, oleic acid at start >20.1-22.1 mol %
[6] = primary + secondary prevention cases, oleic acid at start −18.2 mol %
[7] = primary + secondary prevention cases, stearic acid at start 7.35< mol %
[8] = primary + secondary prevention cases, stearic acid at start >6.46-6.89 mol %
[9] = primary + secondary prevention cases, stearic acid at start >6.89-7.35 mol %
[10] = primary + secondary prevention cases, stearic acid at start −6.46 mol %
[11] = primary prevention cases, Total (oleic acid grouping)
[12] = primary prevention cases, Total (stearic acid grouping)
[13] = primary prevention cases, oleic acid at start 21.9< mol %
[14] = primary prevention cases, oleic acid at start >18.1-19.9 mol %
[15] = primary prevention cases, oleic acid at start >19.9-21.9 mol %
[16] = primary prevention cases, oleic acid at start −18.1 mol %
[17] = primary prevention cases, stearic acid at start 7.33< mol %
[18] = primary prevention cases, stearic acid at start >6.46-6.89 mol %
[19] = primary prevention cases, stearic acid at start >6.89-7.33 mol %
[20] = primary prevention cases, stearic acid at start −6.46 mol %
[21] = secondary prevention cases, Total (oleic acid grouping)
[22] = secondary prevention cases, Total (stearic acid grouping)
[23] = secondary prevention cases, oleic acid at start 22.1< mol %
[24] = secondary prevention cases, oleic acid at start >18.2-20.1 mol %
[25] = secondary prevention cases, oleic acid at start >20.1-22.1 mol %
[26] = secondary prevention cases, oleic acid at start −18.2 mol %
[27] = secondary prevention cases, stearic acid at start 7.38< mol %
[28] = secondary prevention cases, stearic acid at start >6.46-6.90 mol %
[29] = secondary prevention cases, stearic acid at start >6.90-7.38 mol %
[30] = secondary prevention cases, stearic acid at start −6.46 mol %

SMILES: CC/C=C\C/C=C\C/C=C\C/C=C\C/C=C\CCCC(=O)OCC [EPA-E, ethyl icosapentate]
- Ratio of incidence reduction (%) [1]: 13.2%
- Ratio of incidence reduction (%) [2]: 13.2%
- Ratio of incidence reduction (%) [3]: 30.3%
- Ratio of incidence reduction (%) [4]: 14.6%
- Ratio of incidence reduction (%) [5]: −2.0%
- Ratio of incidence reduction (%) [6]: −5.3%
- Ratio of incidence reduction (%) [7]: 39.5%
- Ratio of incidence reduction (%) [8]: −13.9%
- Ratio of incidence reduction (%) [9]: 26.6%
- Ratio of incidence reduction (%) [10]: 1.8%
- Ratio of incidence reduction (%) [11]: 11.1%
- Ratio of incidence reduction (%) [12]: 11.1%
- Ratio of incidence reduction (%) [13]: 30.4%
- Ratio of incidence reduction (%) [14]: 26.1%
- Ratio of incidence reduction (%) [15]: −20.6%
- Ratio of incidence reduction (%) [16]: −12.2%
- Ratio of incidence reduction (%) [17]: 17.0%
- Ratio of incidence reduction (%) [18]: −17.3%
- Ratio of incidence reduction (%) [19]: 19.5%
- Ratio of incidence reduction (%) [20]: 22.0%
- Ratio of incidence reduction (%) [21]: 15.5%
- Ratio of incidence reduction (%) [22]: 15.5%
- Ratio of incidence reduction (%) [23]: 40.8%
- Ratio of incidence reduction (%) [24]: −3.4%
- Ratio of incidence reduction (%) [25]: 8.1%
- Ratio of incidence reduction (%) [26]: 3.0%
- Ratio of incidence reduction (%) [27]: 65.2%
- Ratio of incidence reduction (%) [28]: −19.9%
- Ratio of incidence reduction (%) [29]: 38.7%
- Ratio of incidence reduction (%) [30]: −26.0%
- effect on incidence and/or rate of recurrence of cardiovascular events (patients with an OA level exceeding 22.1 mol % or an SA level exceeding 7.38 mol %): reduced incidence and/or rate of recurrence of cardiovascular events
- Incidence (%) of cardiovascular events [1]: 3.8%
- Number of cardiovascular events [1]: 266
- Incidence (%) of cardiovascular events [2]: 3.8%
- Number of cardiovascular events [2]: 266
- Incidence (%) of cardiovascular events [3]: 4.7%
- Number of cardiovascular events [3]: 77
- Incidence (%) of cardiovascular events [4]: 3.1%
- Number of cardiovascular events [4]: 55
- Incidence (%) of cardiovascular events [5]: 4.4%
- Number of cardiovascular events [5]: 76
- Incidence (%) of cardiovascular events [6]: 3.3%
- Number of cardiovascular events [6]: 58
- Incidence (%) of cardiovascular events [7]: 2.5%
- Number of cardiovascular events [7]: 44
- Incidence (%) of cardiovascular events [8]: 4.9%
- Number of cardiovascular events [8]: 81
- Incidence (%) of cardiovascular events [9]: 3.2%
- Number of cardiovascular events [9]: 56
- Incidence (%) of cardiovascular events [10]: 4.8%
- Number of cardiovascular events [10]: 85
- Incidence (%) of cardiovascular events [11]: 2.5%
- Number of cardiovascular events [11]: 140
- Incidence (%) of cardiovascular events [12]: 2.5%
- Number of cardiovascular events [12]: 140
- Incidence (%) of cardiovascular events [13]: 2.8%
- Number of cardiovascular events [13]: 40
- Incidence (%) of cardiovascular events [14]: 1.9%
- Number of cardiovascular events [14]: 27
- Incidence (%) of cardiovascular events [15]: 3.2%
- Number of cardiovascular events [15]: 46
- Incidence (%) of cardiovascular events [16]: 1.8%
- Number of cardiovascular events [16]: 27
- Incidence (%) of cardiovascular events [17]: 1.9%
- Number of cardiovascular events [17]: 27
- Incidence (%) of cardiovascular events [18]: 3.1%
- Number of cardiovascular events [18]: 43
- Incidence (%) of cardiovascular events [19]: 2.4%
- Number of cardiovascular events [19]: 34
- Incidence (%) of cardiovascular events [20]: 2.4%
- Number of cardiovascular events [20]: 36
- Incidence (%) of cardiovascular events [21]: 10.2%
- Number of cardiovascular events [21]: 126
- Incidence (%) of cardiovascular events [22]: 10.2%
- Number of cardiovascular events [22]: 126
- Incidence (%) of cardiovascular events [23]: 9.5%
- Number of cardiovascular events [23]: 27
- Incidence (%) of cardiovascular events [24]: 8.7%
- Number of cardiovascular events [24]: 28
- Incidence (%) of cardiovascular events [25]: 11.5%
- Number of cardiovascular events [25]: 37
- Incidence (%) of cardiovascular events [26]: 11.2%
- Number of cardiovascular events [26]: 34
- Incidence (%) of cardiovascular events [27]: 4.3%
- Number of cardiovascular events [27]: 14
- Incidence (%) of cardiovascular events [28]: 14.2%
- Number of cardiovascular events [28]: 41
- Incidence (%) of cardiovascular events [29]: 6.9%
- Number of cardiovascular events [29]: 22
- Incidence (%) of cardiovascular events [30]: 16.4%
- Number of cardiovascular events [30]: 49
